Our source for the Kd values is paper PMC9706563, “Development of Macrocyclic PRMT5–Adaptor Protein Interaction Inhibitors” (Journal of Medicinal Chemistry, 2022).

Molecules are shown by their SMILES. Square brackets hold non-standard residues; d marks the D form. Peptide text beside a SMILES is read from it. * marks the point of attachment. FITC = O=C1OC2(c3ccc(O)cc3Oc3cc(O)ccc32)c2ccc(NC(=S)*)cc21; Phe(4-guanidino) = N=C(N)Nc1ccc(C[C@H](N)C(=O)O)cc1; Phe(3-CF3) = N[C@@H](Cc1cccc(C(F)(F)F)c1)C(=O)O; Phe(F5) = N[C@@H](Cc1c(F)c(F)c(F)c(F)c1F)C(=O)O; Phe(4-COOH) = N[C@@H](Cc1ccc(C(=O)O)cc1)C(=O)O; Bpa = N[C@@H](Cc1ccc(C(=O)c2ccccc2)cc1)C(=O)O; Phe(2-Ph) = N[C@@H](Cc1ccccc1-c1ccccc1)C(=O)O; Phe(3-Cl) = N[C@@H](Cc1cccc(Cl)c1)C(=O)O; 1Nal = N[C@@H](Cc1cccc2ccccc12)C(=O)O; 2Nal = N[C@@H](Cc1ccc2ccccc2c1)C(=O)O; Gla = N[C@@H](CC(C(=O)O)C(=O)O)C(=O)O; Phe(2-F) = N[C@@H](Cc1ccccc1F)C(=O)O; Phe(2-I) = N[C@@H](Cc1ccccc1I)C(=O)O; hPhe = N[C@@H](CCc1ccccc1)C(=O)O; 2Pal = N[C@@H](Cc1ccccn1)C(=O)O; Cha = N[C@@H](CC1CCCCC1)C(=O)O; Nle = CCCC[C@H](N)C(=O)O; Nva = CCC[C@H](N)C(=O)O; Abu = CC[C@H](N)C(=O)O

The target of the first test is T1, PRMT5-MEP50 (Homo sapiens, UniProt O14744).
T1 construct: The compounds were tested by means of FP with the full-length PRMT5-MEP50 complex; made in house
T1 sequence (O14744 whole entry): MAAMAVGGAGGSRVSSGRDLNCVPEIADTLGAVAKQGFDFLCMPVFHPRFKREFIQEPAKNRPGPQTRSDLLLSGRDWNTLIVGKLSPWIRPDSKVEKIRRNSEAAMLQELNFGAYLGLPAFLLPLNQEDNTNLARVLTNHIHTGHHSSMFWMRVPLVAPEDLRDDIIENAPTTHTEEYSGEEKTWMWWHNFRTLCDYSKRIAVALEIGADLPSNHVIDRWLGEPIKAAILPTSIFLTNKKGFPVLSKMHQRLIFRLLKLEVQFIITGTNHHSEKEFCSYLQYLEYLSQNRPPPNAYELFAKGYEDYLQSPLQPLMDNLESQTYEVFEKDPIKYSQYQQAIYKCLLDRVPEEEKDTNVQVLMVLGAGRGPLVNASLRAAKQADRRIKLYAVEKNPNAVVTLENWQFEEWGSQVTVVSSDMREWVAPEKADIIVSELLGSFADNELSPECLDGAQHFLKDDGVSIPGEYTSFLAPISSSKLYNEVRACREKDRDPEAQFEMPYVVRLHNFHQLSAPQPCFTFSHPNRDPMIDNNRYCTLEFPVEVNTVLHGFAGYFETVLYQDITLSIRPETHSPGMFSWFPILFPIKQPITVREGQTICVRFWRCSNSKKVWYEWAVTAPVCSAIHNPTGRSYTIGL
T1 sequence (Q9BQA1 whole entry partner): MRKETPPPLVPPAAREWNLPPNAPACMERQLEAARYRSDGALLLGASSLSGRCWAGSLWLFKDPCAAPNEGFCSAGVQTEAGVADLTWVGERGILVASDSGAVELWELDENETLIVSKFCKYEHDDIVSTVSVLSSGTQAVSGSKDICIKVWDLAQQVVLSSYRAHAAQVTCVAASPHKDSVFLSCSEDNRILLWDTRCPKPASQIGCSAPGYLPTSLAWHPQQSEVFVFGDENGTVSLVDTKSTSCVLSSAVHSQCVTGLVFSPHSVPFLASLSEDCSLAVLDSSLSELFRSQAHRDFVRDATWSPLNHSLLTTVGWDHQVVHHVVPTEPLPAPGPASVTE
Put plainly: Direct binding fluorescence polarization (FP) assay of FITC-labeled peptides. As to conditions: PRMT5-MEP50 Kd (µM), supplementary CSV. In general terms: Polarisation of emitted light reports the rotation of a fluorescent probe.
Protocol: The assay was performed in a buffer of 50 mM 4-(2-hydroxyethyl)-1-piperazineethanesulfonic acid (HEPES), 250 mM NaCl, 1 mM tris(2-carboxyethyl)phosphine (TCEP), and 0.01% (v/v) Tween 20, pH 8.0, in black, 384-well plates with a total volume of 10 μL per well. […] The plates were incubated at room temperature for 1 to 2 h and analyzed on a plate reader using 485 nm excitation and 535 nm emission wavelength. The assay was performed in triplicate.
As for `CC(=O)N[C@H](C(=O)N1CCC[C@H]1C(=O)NCC(=O)N[C@@H](CCC(N)=O)C(=O)N[C@@H](Cc1ccc(C(=O)c2ccccc2)cc1)C(=O)N[C@@H](CC(=O)O)C(=O)N[C@@H](CC(=O)O)C(=O)N[C@@H](C)C(=O)N[C@@H](CC(=O)O)C(=O)N[C@@H](CCCCNC(=S)Nc1ccc2c(c1)C(=O)OC21c2ccc(O)cc2Oc2cc(O)ccc21)C(N)=O)C(C)C` [Compound S23] (Ac-VPGQ[Bpa]DDADK(FITC)-NH2), the Kd (commonly the free concentration of one partner at which half of the binding sites on the other are occupied at equilibrium, for simple one-to-one binding) was 0.752 ± 0.044 µM.

The same test, now with this note: supplementary CSV, read-out: PRMT5-MEP50 Kd.
Take `CC(=O)N[C@H](C(=O)N1CCC[C@H]1C(=O)NCC(=O)N[C@@H](CCC(N)=O)C(=O)N[C@@H](Cc1ccccc1F)C(=O)N[C@@H](CC(=O)O)C(=O)N[C@@H](CC(=O)O)C(=O)N[C@@H](C)C(=O)N[C@@H](CC(=O)O)C(=O)N[C@@H](CCCCNC(=S)Nc1ccc2c(c1)C(=O)OC21c2ccc(O)cc2Oc2cc(O)ccc21)C(N)=O)C(C)C` [Compound S12] (Ac-VPGQ[Phe(2-F)]DDADK(FITC)-NH2): the Kd was greater than 1 µM.

As for `CC(=O)N[C@H](C(=O)N1CCC[C@H]1C(=O)NCC(=O)N[C@@H](CCC(N)=O)C(=O)N[C@@H](Cc1c(F)c(F)c(F)c(F)c1F)C(=O)N[C@@H](CC(=O)O)C(=O)N[C@@H](CC(=O)O)C(=O)N[C@@H](C)C(=O)N[C@@H](CC(=O)O)C(=O)N[C@@H](CCCCNC(=S)Nc1ccc2c(c1)C(=O)OC21c2ccc(O)cc2Oc2cc(O)ccc21)C(N)=O)C(C)C` [Compound S13] (Ac-VPGQ[Phe(F5)]DDADK(FITC)-NH2), the Kd is greater than 1 µM.

Consider `CC(=O)N[C@H](C(=O)N1CCC[C@H]1C(=O)NCC(=O)N[C@@H](CCC(N)=O)C(=O)N[C@@H](Cc1ccccc1I)C(=O)N[C@@H](CC(=O)O)C(=O)N[C@@H](CC(=O)O)C(=O)N[C@@H](C)C(=O)N[C@@H](CC(=O)O)C(=O)N[C@@H](CCCCNC(=S)Nc1ccc2c(c1)C(=O)OC21c2ccc(O)cc2Oc2cc(O)ccc21)C(N)=O)C(C)C` [Compound S14] (Ac-VPGQ[Phe(2-I)]DDADK(FITC)-NH2), for which the Kd is greater than 1 µM.

For the compound `CC(=O)N[C@H](C(=O)N1CCC[C@H]1C(=O)NCC(=O)N[C@@H](CCC(N)=O)C(=O)N[C@@H](Cc1cccc(Cl)c1)C(=O)N[C@@H](CC(=O)O)C(=O)N[C@@H](CC(=O)O)C(=O)N[C@@H](C)C(=O)N[C@@H](CC(=O)O)C(=O)N[C@@H](CCCCNC(=S)Nc1ccc2c(c1)C(=O)OC21c2ccc(O)cc2Oc2cc(O)ccc21)C(N)=O)C(C)C` [Compound S15] (Ac-VPGQ[Phe(3-Cl)]DDADK(FITC)-NH2), the dissociation constant Kd was greater than 1 µM.

Take `CC(=O)N[C@H](C(=O)N1CCC[C@H]1C(=O)NCC(=O)N[C@@H](CCC(N)=O)C(=O)N[C@@H](Cc1cccc(C(F)(F)F)c1)C(=O)N[C@@H](CC(=O)O)C(=O)N[C@@H](CC(=O)O)C(=O)N[C@@H](C)C(=O)N[C@@H](CC(=O)O)C(=O)N[C@@H](CCCCNC(=S)Nc1ccc2c(c1)C(=O)OC21c2ccc(O)cc2Oc2cc(O)ccc21)C(N)=O)C(C)C` [Compound S16] (Ac-VPGQ[Phe(3-CF3)]DDADK(FITC)-NH2): the Kd was greater than 1 µM.

As to `CC(=O)N[C@H](C(=O)N1CCC[C@H]1C(=O)NCC(=O)N[C@@H](CCC(N)=O)C(=O)N[C@@H](Cc1ccccn1)C(=O)N[C@@H](CC(=O)O)C(=O)N[C@@H](CC(=O)O)C(=O)N[C@@H](C)C(=O)N[C@@H](CC(=O)O)C(=O)N[C@@H](CCCCNC(=S)Nc1ccc2c(c1)C(=O)OC21c2ccc(O)cc2Oc2cc(O)ccc21)C(N)=O)C(C)C` [Compound S17] (Ac-VPGQ[2Pal]DDADK(FITC)-NH2), the Kd is greater than 1 µM.

`CC(=O)N[C@H](C(=O)N1CCC[C@H]1C(=O)NCC(=O)N[C@@H](CCC(N)=O)C(=O)N[C@@H](Cc1ccc(O)cc1)C(=O)N[C@@H](CC(=O)O)C(=O)N[C@@H](CC(=O)O)C(=O)N[C@@H](C)C(=O)N[C@@H](CC(=O)O)C(=O)N[C@@H](CCCCNC(=S)Nc1ccc2c(c1)C(=O)OC21c2ccc(O)cc2Oc2cc(O)ccc21)C(N)=O)C(C)C` [Compound S18] (Ac-VPGQYDDADK(FITC)-NH2): the dissociation constant Kd was greater than 1 µM.

Turning to `CC(=O)N[C@H](C(=O)N1CCC[C@H]1C(=O)NCC(=O)N[C@@H](CCC(N)=O)C(=O)N[C@@H](Cc1ccc(C(=O)O)cc1)C(=O)N[C@@H](CC(=O)O)C(=O)N[C@@H](CC(=O)O)C(=O)N[C@@H](C)C(=O)N[C@@H](CC(=O)O)C(=O)N[C@@H](CCCCNC(=S)Nc1ccc2c(c1)C(=O)OC21c2ccc(O)cc2Oc2cc(O)ccc21)C(N)=O)C(C)C` [Compound S19] (Ac-VPGQ[Phe(4-COOH)]DDADK(FITC)-NH2), the equilibrium dissociation constant (Kd) is greater than 1 µM.

Take `CC(=O)N[C@H](C(=O)N1CCC[C@H]1C(=O)NCC(=O)N[C@@H](CCC(N)=O)C(=O)N[C@@H](Cc1ccc(N=C(N)N)cc1)C(=O)N[C@@H](CC(=O)O)C(=O)N[C@@H](CC(=O)O)C(=O)N[C@@H](C)C(=O)N[C@@H](CC(=O)O)C(=O)N[C@@H](CCCCNC(=S)Nc1ccc2c(c1)C(=O)OC21c2ccc(O)cc2Oc2cc(O)ccc21)C(N)=O)C(C)C` [Compound S20] (Ac-VPGQ[Phe(4-guanidino)]DDADK(FITC)-NH2): the equilibrium dissociation constant (Kd) is greater than 1 µM.

In the case of `CC(=O)N[C@H](C(=O)N1CCC[C@H]1C(=O)NCC(=O)N[C@@H](CCC(N)=O)C(=O)N[C@@H](CCc1ccccc1)C(=O)N[C@@H](CC(=O)O)C(=O)N[C@@H](CC(=O)O)C(=O)N[C@@H](C)C(=O)N[C@@H](CC(=O)O)C(=O)N[C@@H](CCCCNC(=S)Nc1ccc2c(c1)C(=O)OC21c2ccc(O)cc2Oc2cc(O)ccc21)C(N)=O)C(C)C` [Compound S21] (Ac-VPGQ[hPhe]DDADK(FITC)-NH2), the Kd was greater than 1 µM.

For `CC(=O)N[C@H](C(=O)N1CCC[C@H]1C(=O)NCC(=O)N[C@@H](CCC(N)=O)C(=O)N[C@@H](Cc1ccccc1-c1ccccc1)C(=O)N[C@@H](CC(=O)O)C(=O)N[C@@H](CC(=O)O)C(=O)N[C@@H](C)C(=O)N[C@@H](CC(=O)O)C(=O)N[C@@H](CCCCNC(=S)Nc1ccc2c(c1)C(=O)OC21c2ccc(O)cc2Oc2cc(O)ccc21)C(N)=O)C(C)C` [Compound S22] (Ac-VPGQ[Phe(2-Ph)]DDADK(FITC)-NH2), the Kd was greater than 1 µM.

`CC(=O)N[C@H](C(=O)N1CCC[C@H]1C(=O)NCC(=O)N[C@@H](CCC(N)=O)C(=O)N[C@@H](Cc1ccc2ccccc2c1)C(=O)N[C@@H](CC(=O)O)C(=O)N[C@@H](CC(=O)O)C(=O)N[C@@H](C)C(=O)N[C@@H](CC(=O)O)C(=O)N[C@@H](CCCCNC(=S)Nc1ccc2c(c1)C(=O)OC21c2ccc(O)cc2Oc2cc(O)ccc21)C(N)=O)C(C)C` [Compound S24] (Ac-VPGQ[2Nal]DDADK(FITC)-NH2): the Kd is greater than 1 µM.

`CC(=O)N[C@H](C(=O)N1CCC[C@H]1C(=O)NCC(=O)N[C@@H](CCC(N)=O)C(=O)N[C@@H](Cc1cccc2ccccc12)C(=O)N[C@@H](CC(=O)O)C(=O)N[C@@H](CC(=O)O)C(=O)N[C@@H](C)C(=O)N[C@@H](CC(=O)O)C(=O)N[C@@H](CCCCNC(=S)Nc1ccc2c(c1)C(=O)OC21c2ccc(O)cc2Oc2cc(O)ccc21)C(N)=O)C(C)C` [Compound S25] (Ac-VPGQ[1Nal]DDADK(FITC)-NH2): the Kd is greater than 1 µM.

With `CC(=O)N[C@H](C(=O)N1CCC[C@H]1C(=O)NCC(=O)N[C@@H](CCC(N)=O)C(=O)N[C@@H](Cc1ccccc1)C(=O)N[C@@H](CC(=O)O)C(=O)N[C@@H](CC(C(=O)O)C(=O)O)C(=O)N[C@@H](C)C(=O)N[C@@H](CC(=O)O)C(=O)N[C@@H](CCCCNC(=S)Nc1ccc2c(c1)C(=O)OC21c2ccc(O)cc2Oc2cc(O)ccc21)C(N)=O)C(C)C` [Compound S26] (Ac-VPGQFD[Gla]ADK(FITC)-NH2), the Kd was greater than 1 µM.

Take `CC[C@H](NC(=O)[C@H](CC(=O)O)NC(=O)[C@H](CC(=O)O)NC(=O)[C@H](Cc1ccccc1)NC(=O)[C@H](CCC(N)=O)NC(=O)CNC(=O)[C@@H]1CCCN1C(=O)[C@@H](NC(C)=O)C(C)C)C(=O)N[C@@H](CC(=O)O)C(=O)N[C@@H](CCCCNC(=S)Nc1ccc2c(c1)C(=O)OC21c2ccc(O)cc2Oc2cc(O)ccc21)C(N)=O` [Compound S27] (Ac-VPGQFDD[Abu]DK(FITC)-NH2): the Kd was greater than 1 µM.

Take `CCC[C@H](NC(=O)[C@H](CC(=O)O)NC(=O)[C@H](CC(=O)O)NC(=O)[C@H](Cc1ccccc1)NC(=O)[C@H](CCC(N)=O)NC(=O)CNC(=O)[C@@H]1CCCN1C(=O)[C@@H](NC(C)=O)C(C)C)C(=O)N[C@@H](CC(=O)O)C(=O)N[C@@H](CCCCNC(=S)Nc1ccc2c(c1)C(=O)OC21c2ccc(O)cc2Oc2cc(O)ccc21)C(N)=O` [Compound S28] (Ac-VPGQFDD[Nva]DK(FITC)-NH2): the equilibrium dissociation constant (Kd) was greater than 1 µM.

Consider `CCCC[C@H](NC(=O)[C@H](CC(=O)O)NC(=O)[C@H](CC(=O)O)NC(=O)[C@H](Cc1ccccc1)NC(=O)[C@H](CCC(N)=O)NC(=O)CNC(=O)[C@@H]1CCCN1C(=O)[C@@H](NC(C)=O)C(C)C)C(=O)N[C@@H](CC(=O)O)C(=O)N[C@@H](CCCCNC(=S)Nc1ccc2c(c1)C(=O)OC21c2ccc(O)cc2Oc2cc(O)ccc21)C(N)=O` [Compound S29] (Ac-VPGQFDD[Nle]DK(FITC)-NH2), for which the dissociation constant Kd is greater than 1 µM.

For `CC(=O)N[C@H](C(=O)N1CCC[C@H]1C(=O)NCC(=O)N[C@@H](CCC(N)=O)C(=O)N[C@@H](Cc1ccccc1)C(=O)N[C@@H](CC(=O)O)C(=O)N[C@@H](CC(=O)O)C(=O)N[C@@H](CC1CCCCC1)C(=O)N[C@@H](CC(=O)O)C(=O)N[C@@H](CCCCNC(=S)Nc1ccc2c(c1)C(=O)OC21c2ccc(O)cc2Oc2cc(O)ccc21)C(N)=O)C(C)C` [Compound S30] (Ac-VPGQFDD[Cha]DK(FITC)-NH2), the dissociation constant Kd was greater than 1 µM.

Turning to `CC(=O)N[C@H](C(=O)N1CCC[C@H]1C(=O)NCC(=O)N[C@@H](CCC(N)=O)C(=O)N[C@@H](Cc1ccccc1)C(=O)N[C@@H](CC(=O)O)C(=O)N[C@@H](CC(=O)O)C(=O)N[C@@H](CO)C(=O)N[C@@H](CC(=O)O)C(=O)N[C@@H](CCCCNC(=S)Nc1ccc2c(c1)C(=O)OC21c2ccc(O)cc2Oc2cc(O)ccc21)C(N)=O)C(C)C` [Compound S31] (Ac-VPGQFDDSDK(FITC)-NH2), the dissociation constant (Kd) is greater than 1 µM.

For the compound `CC(=O)N[C@H](C(=O)N1CCC[C@H]1C(=O)NCC(=O)N[C@@H](CCC(N)=O)C(=O)N[C@@H](Cc1ccccc1)C(=O)N[C@@H](CC(=O)O)C(=O)N[C@@H](CC(=O)O)C(=O)N[C@@H](C)C(=O)N[C@@H](Cc1ccc(O)cc1)C(=O)N[C@@H](CCCCNC(=S)Nc1ccc2c(c1)C(=O)OC21c2ccc(O)cc2Oc2cc(O)ccc21)C(N)=O)C(C)C` [Compound S32] (Ac-VPGQFDDAYK(FITC)-NH2), the dissociation constant (Kd) is greater than 1 µM.
